Reference: patent publication US8501842B2, “Polypropylene resin composition and molded article” (Sumitomo Chemical Company, Limited, priority 2007, dated 2013)

Assay: Weight loss by thermogravimetric analysis (TG-DTA)
Format: physicochemical
Conditions: room temperature to 300° C. at 10° C./min, nitrogen gas atmosphere (100 ml/min)
Experimental: Regarding requirement (c), from the viewpoint of the staining of a mold, the emitted amount of VOC, and the stability against photodegradation, the weight loss measured in a thermogravimetric analysis at a temperature of 300° C. under a nitrogen gas atmosphere preferably is less than 5% by weight, and more preferably is less than 3% by weight. The weight loss measured by the thermogravimetric analysis of a hindered amine light stabilizer (C) is a value determined by using a thermo gravimetry differential thermal analyzer (TG-DTA). Described concretely, it is a weight loss rate determined using a thermobalance when the temperature of a hindered amine light stabilizer (C) is increased from room temperature to 300° C. at a rate of 10° C. per minute under a nitrogen gas atmosphere (in a nitrogen flow at a flow rate of 100 ml/min).
The weight loss by thermogravimetric analysis (TG-DTA) of a hindered amine light stabilizer was measured with a thermo gravimetry differential thermal analyzer from room temperature to 300° C. at a temperature increasing rate of 10° C./min under a nitrogen gas atmosphere (100 ml/min).

Q: With `CN1C(C)(C)CC(OC(=O)CC(C(=O)OC2CC(C)(C)N(C)C(C)(C)C2)C(CC(=O)OC2CC(C)(C)N(C)C(C)(C)C2)C(=O)OC2CC(C)(C)N(C)C(C)(C)C2)CC1(C)C` (stereo not drawn) [Example C-2, Tetrakis(1,2,2,6,6-pentamethyl-4-piperidyl) 1,2,3,4-butanetetracarboxylate] as the compound, how does the “Weight loss by thermogravimetric analysis (TG-DTA)” value (“Weight loss” below) read?
A: The value was 5.8 % by weight.

Q: For `CC(C)(C)c1ccc(OC(=O)c2cc(C(C)(C)C)c(O)c(C(C)(C)C)c2)c(C(C)(C)C)c1` [Example C-3, 2,4-Di-tert-butylphenyl 3,5-di-tert-butyl-4-hydroxybenzoate], which “Weight loss” value is on record?
A: The value was 31.6 % by weight.

Q: For “Condensate of N,N-bis(3-aminopropyl)ethylenediamine-2,4-bis[N-butyl-N-(1,2,2,6,6-pentamethyl-4-piperidyl)amino]-6-chloro-1,3,5-triazine [Example C-5]”, which “Weight loss” value is on record?
A: Its value is 0.6 % by weight.
